From patent US20230373974A1, “MODULATORS OF CYSTIC FIBROSIS TRANSMEMBRANE CONDUCTANCE REGULATOR” (VERTEX PHARMACEUTICALS INCORPORATED, priority 2020, published 2023)

Target: T1, F508del in NIH 3T3 cells (Homo sapiens, UniProt P13569, DEL508-508)
T1 construct: expressed in transfected cells
Assay: 3T3 assay: membrane potential optical assay for F508del correction
Assay type: cell-based, mouse
Details: F508del NIH 3T3 cells; for EC50: incubated with compound 18-24 hours at 37° C., forskolin activation; for Emax: NIH3T3, efficacy compared to lumacaftor in combination with acutely added 300 nM Ivacaftor, read-out: 3T3 Max Activity (%)
Text: Membrane Potential Optical Methods for Assaying F508del Modulation Properties of Compounds The assay utilizes fluorescent voltage sensing dyes to measure changes in membrane potential using a fluorescent plate reader (e.g., FLIPR III, Molecular Devices, Inc.) as a readout for increase in functional F508del in NIH 3T3 cells. The driving force for the response is the creation of a chloride ion gradient in conjunction with channel activation by a single liquid addition step after the cells have previously been treated with compounds and subsequently loaded with a voltage sensing dye. 2. Identification of Corrector Compounds To identify correctors of F508del, a single-addition HTS assay format was developed. This HTS assay utilizes fluorescent voltage sensing dyes to measure changes in membrane potential on the FLIPR III as a measurement for increase in gating (conductance) of F508del in F508del NIH 3T3 cells. The F508del NIH 3T3 cell cultures were incubated with the corrector compounds at a range of concentrations for 18-24 hours at 37° C., and subsequently loaded with a redistribution dye. The driving force for the response is a Cl^− ion gradient in conjunction with channel activation with forskolin in a single liquid addition step using a fluorescent plate reader such as FLIPR III. […] Solutions […] Chloride-free bath solution: Chloride salts in Bath Solution #1 (above) are substituted with gluconate salts. 4. Cell Culture NIH3T3 mouse fibroblasts stably expressing F508del are used for optical measurements of membrane potential. The cells are maintained at 37° C. in 5% CO2 and 90% humidity in Dulbecco's modified Eagle's medium supplemented with 2 mM glutamine, 10% fetal bovine serum, 1×NEAA, b-ME, 1×pen/strep, and 25 mM HEPES in 175 cm^2 culture flasks. For all optical assays, the cells were seeded at ˜20,000/well in 384-well Matrigel-coated plates. For the correction assays, the cells are cultured at 37° C. with and without compounds for 16-24 hours.

T1 sequence (P13569 with tags, fused parts or gaps DEL508-508): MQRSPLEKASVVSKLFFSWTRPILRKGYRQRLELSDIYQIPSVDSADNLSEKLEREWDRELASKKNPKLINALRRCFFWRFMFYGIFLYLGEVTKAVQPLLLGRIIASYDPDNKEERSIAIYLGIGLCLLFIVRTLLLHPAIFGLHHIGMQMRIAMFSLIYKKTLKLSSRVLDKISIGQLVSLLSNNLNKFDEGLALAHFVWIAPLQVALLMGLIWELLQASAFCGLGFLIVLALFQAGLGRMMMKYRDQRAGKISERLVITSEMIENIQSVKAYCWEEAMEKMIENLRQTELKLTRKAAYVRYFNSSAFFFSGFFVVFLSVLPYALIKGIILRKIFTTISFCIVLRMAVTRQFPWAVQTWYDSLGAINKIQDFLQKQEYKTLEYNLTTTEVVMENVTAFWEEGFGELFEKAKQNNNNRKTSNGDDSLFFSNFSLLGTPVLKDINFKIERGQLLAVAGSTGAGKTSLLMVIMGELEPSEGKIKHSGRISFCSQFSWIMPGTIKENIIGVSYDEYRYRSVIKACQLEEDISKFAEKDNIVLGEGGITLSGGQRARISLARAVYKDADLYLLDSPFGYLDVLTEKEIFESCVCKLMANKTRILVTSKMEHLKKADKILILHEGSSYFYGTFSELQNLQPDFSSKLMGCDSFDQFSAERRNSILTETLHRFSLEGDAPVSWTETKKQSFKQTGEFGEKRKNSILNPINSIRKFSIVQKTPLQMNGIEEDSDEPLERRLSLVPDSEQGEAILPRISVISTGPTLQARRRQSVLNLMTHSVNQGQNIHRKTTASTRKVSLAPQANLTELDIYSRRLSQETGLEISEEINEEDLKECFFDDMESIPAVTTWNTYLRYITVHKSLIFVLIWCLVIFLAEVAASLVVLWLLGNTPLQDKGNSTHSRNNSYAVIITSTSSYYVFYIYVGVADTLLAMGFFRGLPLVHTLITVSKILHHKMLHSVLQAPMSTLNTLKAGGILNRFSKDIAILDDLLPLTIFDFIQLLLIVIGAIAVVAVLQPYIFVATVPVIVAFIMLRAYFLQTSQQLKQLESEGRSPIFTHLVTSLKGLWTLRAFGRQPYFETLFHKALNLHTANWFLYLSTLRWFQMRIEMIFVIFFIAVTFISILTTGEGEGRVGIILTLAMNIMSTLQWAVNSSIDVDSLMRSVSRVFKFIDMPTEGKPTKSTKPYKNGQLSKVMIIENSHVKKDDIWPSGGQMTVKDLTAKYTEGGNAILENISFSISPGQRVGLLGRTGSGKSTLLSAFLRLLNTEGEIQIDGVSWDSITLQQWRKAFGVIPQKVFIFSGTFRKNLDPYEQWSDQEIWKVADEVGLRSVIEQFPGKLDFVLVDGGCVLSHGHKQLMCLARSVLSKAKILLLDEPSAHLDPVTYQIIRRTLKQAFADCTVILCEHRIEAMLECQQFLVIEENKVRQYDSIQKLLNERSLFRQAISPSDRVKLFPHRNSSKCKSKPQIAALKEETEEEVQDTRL

| EC50 [µM] | Emax [%] | SMILES |
| --- | --- | --- |
| 1 to 3 | > 60 | Cc1ccccc1Oc1nc(NS(=O)(=O)c2cnn(C)c2)nc2c1C(C)(C)CCC2 [Compound 1, N-[5,5-dimethyl-4-(2-methylphenoxy)-7,8-dihydro-6H-quinazolin-2-yl]-1-methyl-pyrazole-4-sulfonamide] |
| 1 to 3 | > 60 | Cc1ccccc1Oc1nc(NS(=O)(=O)c2cnn(C)c2)nc2c1CCC(C)(C)C2 [Compound 2, N-[7,7-Dimethyl-4-(2-methylphenoxy)-6,8-dihydro-5H-quinazolin-2-yl]-1-methyl-pyrazole-4-sulfonamide] |
| 1 to 3 | > 60 | Cc1ccccc1Oc1nc(NS(=O)(=O)c2cnn(C)c2)nc2c1CC(C)(C)CC2 [Compound 3, N-[6,6-Dimethyl-4-(2-methylphenoxy)-7,8-dihydro-5H-quinazolin-2-yl]-1-methyl-pyrazole-4-sulfonamide] |
| 3 to 30 | > 60 | O=S(=O)(Nc1nc2c(c(Oc3ccccc3)n1)CCCC2)c1ccccc1 [Compound 4, N-(4-phenoxy-5,6,7,8-tetrahydroquinazolin-2-yl)benzenesulfonamide] |
| 3 to 30 | 30 to 60 | Cc1ccccc1Oc1nc(NS(=O)(=O)c2cnn(C)c2)nc2c1CCCC2(C)C [Compound 5, N-[8,8-Dimethyl-4-(2-methylphenoxy)-6,7-dihydro-5H-quinazolin-2-yl]-1-methyl-pyrazole-4-sulfonamide] |
| 3 to 30 | > 60 | O=S(=O)(Nc1nc2c(c(Oc3ccccc3)n1)CCC2)c1ccccc1 [Compound 6, N-(4-phenoxy-6,7-dihydro-5H-cyclopenta[d]pyrimidin-2-yl)benzenesulfonamide] |
| < 1 | > 60 | Cc1ccccc1Oc1nc(NS(=O)(=O)c2cnn(C)c2)nc2c1CCc1ccccc1-2 [Compound 7] |
| 3 to 30 | – | O=S(=O)(NC1=Nc2ccccc2C(c2ccccc2)S1)c1ccccc1 (stereo not drawn) [Compound 9, N-(4-phenyl-4H-3,1-benzothiazin-2-yl)benzenesulfonamide] |
| < 1 | – | CC(C)(C)c1ccccc1Oc1nc2ccccc2nc1NS(=O)(=O)c1ccccc1 [Compound 10, N-[3-(2-tert-butylphenoxy)quinoxalin-2-yl]benzenesulfonamide] |
| 3 to 30 | – | Cc1cccc(C)c1Oc1nc2ccccc2nc1NS(=O)(=O)c1ccccc1 [Compound 11, N-[3-(2,6-Dimethylphenoxy)quinoxalin-2-yl]benzenesulfonamide] |
| 3 to 30 | 30 to 60 | O=S(=O)(Nc1nc2ccccc2nc1N1CCCCC1)c1ccccc1 [Compound 12, N-[3-(1-piperidyl)quinoxalin-2-yl]benzenesulfonamide] |
| 1 to 3 | 30 to 60 | Cc1cc(C)c(Oc2nc3ccccc3nc2NS(=O)(=O)c2ccccc2)c(C)c1 [Compound 13] |
| 1 to 3 | 30 to 60 | Cc1ccc(Oc2nc3ccccc3nc2NS(=O)(=O)c2ccccc2)c(C)c1 [Compound 14] |
| 3 to 30 | 30 to 60 | Cc1ccccc1Oc1nc2ccccc2nc1NS(=O)(=O)c1ccccc1 [Compound 15] |
| – | < 30 | O=S(=O)(Nc1nc(Oc2ccccc2)nc2ccccc12)c1ccccc1 [Compound 16] |
| – | < 30 | Cc1cc(C)cc(-c2nc(NS(=O)(=O)c3ccccc3)c3ccc(C(C)(C)C)nc3n2)c1 [Compound 17] |
| – | < 30 | Cc1ccc(-c2nc(NS(=O)(=O)c3ccccc3)c3ccc(C(C)(C)C)nc3n2)c(C)c1 [Compound 18] |
| – | < 30 | Cc1cc(C)c(Oc2nc(NS(=O)(=O)c3ccccc3)c3ccc(C(C)(C)C)nc3n2)c(C)c1 [Compound 19] |
| 3 to 30 | – | O=S(=O)(Nc1nc2c(s1)-c1ccccc1CC2)c1ccccc1 [Compound 20, N-(4,5-Dihydrobenzo[g][1,3]benzothiazol-2-yl) benzenesulfonamide] |
| – | < 30 | CC(C)(O)C1CCc2nc(NS(=O)(=O)c3ccccc3)sc2C1 (stereo not drawn) [Compound 21] |
| – | < 30 | CC(C)N1CCc2nc(NS(=O)(=O)c3ccccc3)sc2C1 [Compound 22] |
| – | < 30 | CC1CCc2nc(NS(=O)(=O)c3ccccc3)sc2C1 (stereo not drawn) [Compound 24] |
| 1 to 3 | 30 to 60 | CC(C)(C)C1CCc2nc(NS(=O)(=O)c3ccccc3)sc2C1 (stereo not drawn) [Compound 25] |

| EC50 [µM] | Emax [%] | SMILES |
| --- | --- | --- |
| 1 to 3 | 30 to 60 | O=S(=O)(Nc1nc2c(s1)CCc1ccccc1-2)c1ccccc1 [Compound 26] |
| 3 to 30 | 30 to 60 | O=S(=O)(Nc1nc2c(s1)Cc1ccccc1-2)c1ccccc1 [Compound 27] |
| 1 to 3 | – | Cc1cc(C)cc(-c2nc(NS(=O)(=O)c3ccccc3)nc3ccccc23)c1 [Compound 28, N-[4-(3,5-Dimethylphenyl)quinazolin-2-yl]benzenesulfonamide] |
| < 1 | – | O=S(=O)(Nc1nc(-c2ccccc2)c2ccn(-c3ccccc3)c2n1)c1ccccc1 [Compound 29, N-(4,7-Diphenylpyrrolo[2,3-d]pyrimidin-2-yl)benzenesulfonamide] |
| < 1 | – | Cc1cc(C)cc(-c2nc(NS(=O)(=O)c3ccccc3)nc3nc(C(C)(C)C)ccc23)c1 [Compound 30, N-[7-tert-butyl-4-(3,5-dimethylphenyl)pyrido[2,3-d]pyrimidin-2-yl]benzenesulfonamide] |
| 3 to 30 | – | O=S(=O)(Nc1nc(Oc2ccccc2)c2ccccc2n1)c1ccccc1 [Compound 31, N-(4-phenoxyquinazolin-2-yl)benzenesulfonamide] |
| < 1 | – | Nc1cccc(S(=O)(=O)Nc2nc(-c3ccccc3)c3ccn(-c4ccccc4)c3n2)c1 [Compound 32, 3-Amino-N-(4,7-diphenylpyrrolo[2,3-d]pyrimidin-2-yl)benzenesulfonamide] |
| < 1 | > 60 | Cc1cc(C)c(-n2nc(NS(=O)(=O)c3cccc(N(C)C)c3)c3ccc(C(C)(C)C)nc32)c(C)c1 [Compound 34, N-[6-tert-butyl-1-(2,4,6-trimethylphenyl)pyrazolo[3,4-b]pyridin-3-yl]-3-(dimethylamino)benzenesulfonamide] |
| 1 to 3 | > 60 | Cc1cc(C)c(-n2nc(NS(=O)(=O)c3cn[nH]c3)c3ccc(C(C)(C)C)nc32)c(C)c1 [Compound 35, N-[6-tert-butyl-1-(2,4,6-trimethylphenyl)pyrazolo[3,4-b]pyridin-3-yl]-1H-pyrazole-4-sulfonamide] |
| 1 to 3 | – | Cc1cc(C)c(-n2nc(NS(=O)(=O)c3ccc(N)cc3)c3ccc(C(C)(C)C)nc32)c(C)c1 [Compound 36, 4-Amino-N-[6-tert-butyl-1-(2,4,6-trimethylphenyl)pyrazolo[3,4-b]pyridin-3-yl]benzenesulfonamide] |
| < 1 | 30 to 60 | Cc1cc(C)cc(-n2nc(NS(=O)(=O)c3ccccc3)c3ccc(C(C)(C)C)nc32)c1 [Compound 37, N-[6-tert-Butyl-1-(3,5-dimethylphenyl)pyrazolo[3,4-b]pyridin-3-yl]benzenesulfonamide] |
| < 1 | 30 to 60 | CC(C)(C)c1ccc2c(NS(=O)(=O)c3ccccc3)nn(-c3cccc(Cl)c3)c2n1 [Compound 38, N-[6-tert-butyl-1-(3-chlorophenyl)pyrazolo[3,4-b]pyridin-3-yl]benzenesulfonamide] |
| 1 to 3 | – | CC(C)n1nc(NS(=O)(=O)c2ccccc2)c2ccc(C(C)(C)C)nc21 [Compound 39, N-(6-tert-butyl-1-isopropyl-pyrazolo[3,4-b]pyridin-3-yl)benzenesulfonamide] |
| < 1 | 30 to 60 | CC(C)(C)c1ccc2c(NS(=O)(=O)c3ccccc3)nn(-c3ccccc3)c2n1 [Compound 40] |
| – | < 30 | CC(C)CCn1nc(NS(=O)(=O)c2ccccc2)c2ccc(C(C)(C)C)nc21 [Compound 41] |
| 1 to 3 | 30 to 60 | Cc1cc(C)c(-n2nc(NS(=O)(=O)c3cccc(N)n3)c3ccc(C(C)(C)C)nc32)c(C)c1 [Compound 42] |
| < 1 | 30 to 60 | Cc1ccc(-n2nc(NS(=O)(=O)c3ccccc3)c3ccc(C(C)(C)C)nc32)c(C)c1 [Compound 43] |
| < 1 | 30 to 60 | Cc1ccc(-n2nc(NS(=O)(=O)c3ccccc3)c3ccc(C(C)(C)C)nc32)cc1 [Compound 44] |
| < 1 | 30 to 60 | Cc1ccccc1-n1nc(NS(=O)(=O)c2ccccc2)c2ccc(C(C)(C)C)nc21 [Compound 45] |
| < 1 | 30 to 60 | Cc1cc(C)cc(-n2nc(NS(=O)(=O)c3ccccc3)c3cc(C(C)C)cnc32)c1 [Compound 46] |
| < 1 | 30 to 60 | C=C(C)c1cnc2c(c1)c(NS(=O)(=O)c1ccccc1)nn2-c1cc(C)cc(C)c1 [Compound 47] |
| < 1 | 30 to 60 | Cc1cc(C)cc(-n2nc(NS(=O)(=O)c3ccccc3)c3cc(Br)cnc32)c1 [Compound 48] |
| – | < 30 | CC(C)C(C)n1nc(NS(=O)(=O)c2ccccc2)c2ccc(C(C)(C)C)nc21 (stereo not drawn) [Compound 49] |
